# Assay results from ChEMBL document CHEMBL4041541, “Solvent free, catalyst free, microwave or grinding assisted synthesis of bis-cyclic imide derivatives and their evaluation for anticancer activity” (Bioorg Med Chem Lett, 2017).
# Key:
# [1] = Selectivity index, ratio of IC50 for HEK293T cells to IC50 for human HCT15 cells; assay type: functional
# [2] = Selectivity index, ratio of IC50 for HEK293T cells to IC50 for human PA1 cells; assay type: functional
# [3] = system: T47D; test: Growth inhibition of human T47D cells after 24 hrs by MTT assay; assay type: functional, cell-based
# [4] = system: T47D; test: Growth inhibition of human T47D cells at 1 x 10^-5 M after 24 hrs by MTT assay relative to control; assay type: functional; settings: read-out: GI
# [5] = system: HEK-293T; test: Growth inhibition of HEK293T cells after 24 hrs by MTT assay; assay type: cell-based; settings: Homo sapiens
# [6] = system: HCT-15; test: Growth inhibition of human HCT15 cells after 24 hrs by MTT assay; assay type: functional, cell-based; settings: HCT-15, 24 h
# [7] = Selectivity index, ratio of IC50 for HEK293T cells to IC50 for human HepG2 cells; assay type: functional
# [8] = system: NCI-H522; test: Growth inhibition of human NCI-H522 cells after 24 hrs by MTT assay; assay type: functional, cell-based; settings: NCI-H522, 24 h
# [9] = system: PA-1; test: Growth inhibition of human PA1 cells at 1 x 10^-5 M after 24 hrs by MTT assay relative to control; assay type: functional; settings: PA-1, 24 h, read-out: GI
# [10] = Selectivity index, ratio of IC50 for HEK293T cells to IC50 for human NCI-H522 cells; assay type: functional
# [11] = system: NCI-H522; test: Growth inhibition of human NCI-H522 cells at 1 x 10^-5 M after 24 hrs by MTT assay relative to control; assay type: functional; settings: NCI-H522, 24 h, read-out: GI
# [12] = system: HepG2; test: Growth inhibition of human HepG2 cells after 24 hrs by MTT assay; assay type: functional, cell-based; settings: HepG2, 24 h
# [13] = system: HCT-15; test: Growth inhibition of human HCT15 cells at 1 x 10^-5 M after 24 hrs by MTT assay relative to control; assay type: functional; settings: HCT-15, 24 h, read-out: GI
# [14] = Selectivity index, ratio of IC50 for HEK293T cells to IC50 for human T47D cells; assay type: functional
# [15] = system: PA-1; test: Growth inhibition of human PA1 cells after 24 hrs by MTT assay; assay type: functional, cell-based; settings: PA-1, 24 h
# [16] = system: HepG2; test: Growth inhibition of human HepG2 cells at 1 x 10^-5 M after 24 hrs by MTT assay relative to control; assay type: functional; settings: HepG2, 24 h, read-out: GI
SMILES,Ratio IC50 [1],Ratio IC50 [2],IC50 [3],inhibition of growth at 10 µM [4],IC50 [5],IC50 [6],Ratio IC50 [7],IC50 [8],inhibition of growth at 10 µM [9],Ratio IC50 [10],inhibition of growth at 10 µM [11],IC50 [12],inhibition of growth at 10 µM [13],Ratio IC50 [14],IC50 [15],inhibition of growth at 10 µM [16]
O=C1C2CC=CCC2C(=O)N1CCOCCOCCN1C(=O)C2CC=CCC2C1=O (stereo not drawn),2.5 - 4.5,2.5 - 4.5,14.5 µM,51%,44.2 µM,21.1 µM,2.5 - 4.5,38 µM,31%,2.5 - 4.5,59%,17.3 µM,45%,2.5 - 4.5,18.8 µM,53%
O=C1C2CC=CCC2C(=O)N1c1ccc(S(=O)(=O)c2ccc(N3C(=O)C4CC=CCC4C3=O)cc2)cc1 (stereo not drawn),2.5 - 4.5,2.5 - 4.5,31.1 µM,41%,42.2 µM,14.4 µM,2.5 - 4.5,37.1 µM,41%,2.5 - 4.5,56%,18.3 µM,51%,2.5 - 4.5,32.1 µM,19%
O=C1C2CCCCC2C(=O)N1c1ccc(S(=O)(=O)c2ccc(N3C(=O)C4CCCCC4C3=O)cc2)cc1 (stereo not drawn),2.5 - 4.5,2.5 - 4.5,12.7 µM,51%,43.6 µM,63.3 µM,2.5 - 4.5,19.6 µM,36%,2.5 - 4.5,49%,17.1 µM,65%,2.5 - 4.5,22.6 µM,57%
